The values below come from patent US10751417B2, “Sustained release delivery systems comprising traceless linkers” (NOVARTIS AG, priority 2017, dated 2020).

The nature of this data set: Release study 8-4b: degradation of model conjugates M20-M27 in aqueous DMF:PBS at 37 °C, HPLC-UV/MS. It is filed as physicochemical. The following applies: 1 mM in 2:1 DMF:PBS, first order fit, rounded to nearest whole day. As for the experimental part:
8-4b. M20-M27 In Vitro Release Study
In this study, a series of model traceless linker-drug conjugates M20-M27 was held in aqueous solution at 37° C. These reactions were sampled at various timepoints and analyzed to determine the concentration of remaining starting compound. The analytical method was not optimized to determine concentration of the amine-containing drug. Half-life of degradation for the parent was calculated.
Method for Estimation of Conjugate Degradation Rates for M20-M27
Each compound M20-M27 was prepared as a 0.1 M stock solution in DMF. A 35 μL aliquot of each solution was added to 3.465 mL of 2:1 DMF:PBS (for compound M24: 3:1 DMF:PBS) to obtain 1 mM solutions of each compound M20-M27. The reaction vials were held at 37° C. At each time point (e.g., 0, 1, 3, 8, 14, 21, 28, 35, 49, 56, 70, 92 days) analytical samples were prepared by collecting 150 μL from each 1 mM solution and diluting with 75 μL DMF. Two analytical samples were collected from each reaction vial at each time point and stored at 4° C. All samples were analyzed in one batch after completion of the release study. Each sample was analyzed twice using an analytical HPLC method described below.
The composition of the reaction solution was evaluated at each timepoint using HPLC. Compound M20-M27 peaks were assigned by MS detection, and the integration of the peak from the chromatogram generated using UV absorbance detection at 272 nm was determined. The mean peak area for each compound M20-M27 on Day 0 was assigned a normalized value of 100. The absolute area under the curve at each timepoint was compared with these values. Run-to-run peak area reproducibility was typically within 20% on strong signal and considerably worse on weak signals, so normalized signals above 100 likely correspond to values at or approaching 100 (likely 90-100, within experimental error). The percentage of compounds M20-M27 remaining in the solution were calculated by dividing the relevant peak area by the mean area that was assigned a normalized value of 100 and multiplying the result by 100. The percentage of compound M20-M27 present in the solution was plotted versus time and the half-life of degradation was estimated using curve-fitting software assuming first order kinetics.
Analytical HPLC-MS Conditions for Study 8.4b.
All settings the same as for analytical HPLC-MS conditions for study 8.4a except the following: Mobile Phases: A=5 mM ammonium hydroxide in water; B=5 mM ammonium hydroxide in acetonitrile; Flow Rate: 400 μL/min: Gradient (time/% B): 0/10, 0.5/10, 4/80, 8/80, 8.1/10, 12/10. Divert valve switched at 0.5 minutes after sample injection.

Regarding `CCO[Si](OCC1CN(C(=O)CCNC(=O)OCc2ccccc2)CCN1CC(=O)NCc1ccc(OC)cc1)(C(C)C)C(C)C` (stereo not shown) [M27, benzyl N-(3-(3′-(((ethoxydiisopropylsilyl)oxy)methyl)-4′-(2″-((4′′′-methoxybenzyl)amino)-2″-oxoethyl)piperazin-1′-yl)-3-oxopropyl)carbamate], the “Calculated stability t1/2, parent (d)” value is “No degradation”.
